Experiment [1] deals with LNCaP prostate cancer cell. Kind of experiment: LNCaP cell viability (CellTiter-Glo). In kind it is cell-based. The settings on record: Homo sapiens, 72 h, LNCaP cell viability, 3 days, CellTiter-Glo. An outline of the steps:
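LNCaP cells (5000/well, RPMI 1640 + 10% FBS, 37 °C) treated with compounds in 12-point 3-fold serial dilution for three days. Viability read by CellTiter-Glo luminescence, normalized to untreated cells; IC50 from least-squares nonlinear regression.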
A general note: ATP-based viability assays read luminescence as a measure of living cells.

The next experiment addresses P300 (Homo sapiens, UniProt Q09472). Kind of experiment: percentage of inhibition (degradation) of p300 at 10 nM, Tables 2-4. The class given is cell-based. Further details: LNCaP or 22RV1 cells that express CBP/P300 proteins were treated with GNE-781 or the bivalent compounds; endogenous in cells; host or cells: LNCaP or 22RV1 (not given). The settings on record: for inhibition at 0.01 µM: read-out: Degradation (10 nM). Summed up:
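Degradation was measured at 10 nM. Cells or tissue were lysed in RIPA with protease and phosphatase inhibitors for 30 min at 4 °C and cleared, and protein was quantified by BCA. Lysates were resolved by SDS-PAGE, detected by chemiluminescent immunoblot, and bands were quantified by densitometry.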

Where two headings read alike, the source gives them in different places.

Sequence of P300 (Q09472 whole entry): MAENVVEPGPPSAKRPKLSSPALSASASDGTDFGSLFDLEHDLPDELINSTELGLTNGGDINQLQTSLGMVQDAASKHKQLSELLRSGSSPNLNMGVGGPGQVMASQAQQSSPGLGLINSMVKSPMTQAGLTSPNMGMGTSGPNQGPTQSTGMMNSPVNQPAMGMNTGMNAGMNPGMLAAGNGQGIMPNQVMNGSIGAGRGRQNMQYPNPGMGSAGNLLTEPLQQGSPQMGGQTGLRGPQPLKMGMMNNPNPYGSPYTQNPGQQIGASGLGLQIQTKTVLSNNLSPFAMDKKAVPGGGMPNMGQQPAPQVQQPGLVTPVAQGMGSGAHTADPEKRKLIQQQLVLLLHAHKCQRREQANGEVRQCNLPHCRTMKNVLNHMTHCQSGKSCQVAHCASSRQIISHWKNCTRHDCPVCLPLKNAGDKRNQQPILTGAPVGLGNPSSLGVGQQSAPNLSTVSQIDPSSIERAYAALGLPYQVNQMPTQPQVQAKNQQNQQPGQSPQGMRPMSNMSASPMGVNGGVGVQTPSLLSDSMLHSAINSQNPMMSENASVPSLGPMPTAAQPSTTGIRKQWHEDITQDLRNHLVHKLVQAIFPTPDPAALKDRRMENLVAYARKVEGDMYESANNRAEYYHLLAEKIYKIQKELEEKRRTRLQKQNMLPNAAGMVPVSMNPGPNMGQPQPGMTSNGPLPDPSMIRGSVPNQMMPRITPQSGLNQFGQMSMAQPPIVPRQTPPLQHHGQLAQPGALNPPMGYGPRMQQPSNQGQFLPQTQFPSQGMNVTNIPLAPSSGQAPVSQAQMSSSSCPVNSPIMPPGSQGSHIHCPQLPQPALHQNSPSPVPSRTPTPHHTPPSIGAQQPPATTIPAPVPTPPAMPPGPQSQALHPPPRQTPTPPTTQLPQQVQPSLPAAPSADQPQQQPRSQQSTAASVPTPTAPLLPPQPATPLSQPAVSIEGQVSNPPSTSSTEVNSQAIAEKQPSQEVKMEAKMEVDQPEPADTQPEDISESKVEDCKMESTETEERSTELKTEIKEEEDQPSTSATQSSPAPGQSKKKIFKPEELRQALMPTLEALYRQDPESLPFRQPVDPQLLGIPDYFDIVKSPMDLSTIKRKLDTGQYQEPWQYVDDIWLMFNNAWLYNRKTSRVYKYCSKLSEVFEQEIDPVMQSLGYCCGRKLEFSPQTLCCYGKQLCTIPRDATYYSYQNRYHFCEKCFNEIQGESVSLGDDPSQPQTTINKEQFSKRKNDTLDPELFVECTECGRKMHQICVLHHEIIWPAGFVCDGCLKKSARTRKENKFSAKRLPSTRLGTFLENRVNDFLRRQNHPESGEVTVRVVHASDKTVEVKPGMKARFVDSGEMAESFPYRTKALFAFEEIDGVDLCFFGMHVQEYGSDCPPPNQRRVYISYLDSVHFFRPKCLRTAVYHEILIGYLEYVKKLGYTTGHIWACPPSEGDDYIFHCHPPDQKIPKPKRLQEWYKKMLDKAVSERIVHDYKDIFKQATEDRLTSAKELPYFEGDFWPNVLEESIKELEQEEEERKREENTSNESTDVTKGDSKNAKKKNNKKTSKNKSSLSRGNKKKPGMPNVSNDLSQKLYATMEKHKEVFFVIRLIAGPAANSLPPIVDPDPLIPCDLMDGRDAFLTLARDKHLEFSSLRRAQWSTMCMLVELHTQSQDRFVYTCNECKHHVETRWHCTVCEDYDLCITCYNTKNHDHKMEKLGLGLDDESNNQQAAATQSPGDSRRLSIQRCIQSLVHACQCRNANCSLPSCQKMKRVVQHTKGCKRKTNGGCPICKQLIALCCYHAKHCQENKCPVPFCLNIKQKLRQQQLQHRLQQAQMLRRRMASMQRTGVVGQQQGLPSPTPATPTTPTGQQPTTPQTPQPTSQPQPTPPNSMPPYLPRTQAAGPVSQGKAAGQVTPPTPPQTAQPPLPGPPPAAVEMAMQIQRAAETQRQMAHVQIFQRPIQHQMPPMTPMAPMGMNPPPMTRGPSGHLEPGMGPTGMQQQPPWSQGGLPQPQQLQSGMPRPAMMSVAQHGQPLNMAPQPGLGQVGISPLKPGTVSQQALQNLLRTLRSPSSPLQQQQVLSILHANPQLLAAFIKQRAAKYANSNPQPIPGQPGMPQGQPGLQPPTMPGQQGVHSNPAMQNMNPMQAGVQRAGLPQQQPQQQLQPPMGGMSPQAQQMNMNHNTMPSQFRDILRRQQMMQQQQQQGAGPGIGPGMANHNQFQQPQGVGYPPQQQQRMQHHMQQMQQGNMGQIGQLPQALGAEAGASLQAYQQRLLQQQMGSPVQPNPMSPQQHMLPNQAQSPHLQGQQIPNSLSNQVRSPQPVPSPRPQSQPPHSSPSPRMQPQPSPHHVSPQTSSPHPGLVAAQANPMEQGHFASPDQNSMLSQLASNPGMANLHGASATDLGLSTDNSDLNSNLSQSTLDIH

On to `CC(=O)N1CCc2c(c(N3CCCc4cc(-c5cnn(C)c5)c(C(F)F)cc43)nn2C2CCN(C(=O)CCCN3CCC(CCc4cccc5c4n(C)c(=O)n5C4CCC(=O)NC4=O)CC3)CC2)C1` (centres unmarked) [P-230, 3-(4-(2-(1-(4-(4-(5-Acetyl-3-(7-(difluoromethyl)-6-(1-methyl-1H-pyrazol-4-yl)-3,4-dihydroquinolin-1(2H)-yl)-4,5,6,7-tetrahydro-1H-pyrazolo[4,3-c]pyridin-1-yl)piperidin-1-yl)-4-oxobutyl)piperidin-4-yl)ethyl)-3-methyl-2-oxo-2,3-dihydro-1H-benzo[d]imidazol-1-yl)piperidine-2,6-dione], for which the IC50 in experiment [1] (Table 4) turned out to be 17.1 nM. In addition, on P300 (p300, 10 nM, Table 4), the inhibition at 0.01 µM is above 80%.
With `CC(=O)N1CCc2c(c(N3CCCc4cc(-c5cnn(C)c5)c(C(F)F)cc43)nn2C2CCN(CCN3CCC(CCc4cccc5c4n(C)c(=O)n5C4CCC(=O)NC4=O)CC3)CC2)C1` (centres unmarked) [P-252, 3-(4-(2-(1-(2-(4-(5-acetyl-3-(7-(difluoromethyl)-6-(1-methyl-1H-pyrazol-4-yl)-3,4-dihydroquinolin-1(2H)-yl)-4,5,6,7-tetrahydro-1H-pyrazolo[4,3-c]pyridin-1-yl)piperidin-1-yl)ethyl)piperidin-4-yl)ethyl)-3-methyl-2-oxo-2,3-dihydro-1H-benzo[d]imidazol-1-yl)piperidine-2,6-dione], in experiment [1] (Table 4), the IC50 was 0.1 nM. The inhibition at 0.01 µM on P300 is above 80%.
In experiment [1] (Table 3), `CC(=O)N1CCc2c(c(N3CCCc4cc(-c5cnn(C)c5)c(C(F)F)cc43)nn2C2CCN(C(=O)CCCCCn3c(=O)n(C4CCC(=O)NC4=O)c4ccccc43)CC2)C1` (centres unmarked) [P-107, 3-(3-(6-(4-(5-acetyl-3-(7-(difluoromethyl)-6-(1-methyl-1H-pyrazol-4-yl)-3,4-dihydroquinolin-1(2H)-yl)-4,5,6,7-tetrahydro-1H-pyrazolo[4,3-c]pyridin-1-yl)piperidin-1-yl)-6-oxohexyl)-2-oxo-2,3-dihydro-1H-benzo[d]imidazol-1-yl)piperidine-2,6-dione] had a 50% inhibitory concentration (IC50) of 20.4 nM. Further, on P300 (p300, 10 nM, Table 3), the “Degradation (10 nM)” value is “B (B: 50% ≤ Degradation < 80%)”.
Compound `CC(=O)N1CCc2c(c(N3CCCc4cc(-c5cnn(C)c5)c(C(F)F)cc43)nn2C2CCN(C(=O)CN3CCN(CCCc4ccc5c(c4)n(C)c(=O)n5C4CCC(=O)NC4=O)CC3)CC2)C1` (centres unmarked) [P-220, 3-(5-(3-(4-(2-(4-(5-Acetyl-3-(7-(difluoromethyl)-6-(1-methyl-1H-pyrazol-4-yl)-3,4-dihydroquinolin-1(2H)-yl)-4,5,6,7-tetrahydro-1H-pyrazolo[4,3-c]pyridin-1-yl)piperidin-1-yl)-2-oxoethyl)piperazin-1-yl)propyl)-3-methyl-2-oxo-2,3-dihydro-1H-benzo[d]imidazol-1-yl)piperidine-2,6-dione] gave a concentration for half-maximal inhibition (IC50) in experiment [1] (Table 4) of 15.5 nM. For the same compound, the inhibition at 0.01 µM on P300 (p300, 10 nM, Table 4) lay in the range of 50 to 80%.
Taken in the same sequence, the figures for `CC(=O)N1CCc2c(c(N3CCCc4cc(-c5cnn(C)c5)c(C(F)F)cc43)nn2C2CCN(C(=O)CCCN3CCN(CCCc4cccc5c4n(C)c(=O)n5C4CCC(=O)NC4=O)CC3)CC2)C1` (centres unmarked) [P-225, 3-(4-(3-(4-(4-(4-(5-Acetyl-3-(7-(difluoromethyl)-6-(1-methyl-1H-pyrazol-4-yl)-3,4-dihydroquinolin-1(2H)-yl)-4,5,6,7-tetrahydro-1H-pyrazolo[4,3-c]pyridin-1-yl)piperidin-1-yl)-4-oxobutyl)piperazin-1-yl)propyl)-3-methyl-2-oxo-2,3-dihydro-1H-benzo[d]imidazol-1-yl)piperidine-2,6-dione] were 43.4 nM and 50 to 80%.
`CNC(=O)N1CCc2c(c(N3CCCc4cc(-c5cnn(C)c5)c(C(F)F)cc43)nn2C2CCN(C(=O)CCOCCC(=O)N[C@H](C(=O)N3C[C@H](O)C[C@H]3C(=O)NCc3ccc(-c4scnc4C)cc3)C(C)(C)C)CC2)C1` [P-065, 3-(7-(difluoromethyl)-6-(1-methyl-1H-pyrazol-4-yl)-3,4-dihydroquinolin-1(2H)-yl)-1-(1-(3-(3-(((S)-1-((2S,4R)-4-hydroxy-2-((4-(4-methylthiazol-5-yl)benzyl)carbamoyl)pyrrolidin-1-yl)-3,3-dimethyl-1-oxobutan-2-yl)amino)-3-oxopropoxy)propanoyl)piperidin-4-yl)-N-methyl-1,4,6,7-tetrahydro-5H-pyrazolo[4,3-c]pyridine-5-carboxamide] returned an IC50 in experiment [1] (Table 3) of 74.5 nM. Further, the inhibition at 0.01 µM on P300 (p300, 10 nM, Table 3) is below 20%.
For `CC(=O)N1CCc2c(c(N3CCCc4cc(-c5cnn(C)c5)c(C(F)F)cc43)nn2C2CCN(C(=O)CCN3CCC(CCc4cccc5c4n(C)c(=O)n5C4CCC(=O)NC4=O)CC3)CC2)C1` (centres unmarked) [P-232, 3-(4-(2-(1-(3-(4-(5-Acetyl-3-(7-(difluoromethyl)-6-(1-methyl-1H-pyrazol-4-yl)-3,4-dihydroquinolin-1(2H)-yl)-4,5,6,7-tetrahydro-1H-pyrazolo[4,3-c]pyridin-1-yl)piperidin-1-yl)-3-oxopropyl)piperidin-4-yl)ethyl)-3-methyl-2-oxo-2,3-dihydro-1H-benzo[d]imidazol-1-yl)piperidine-2,6-dione], half-maximal inhibition in experiment [1] (Table 4) (IC50) was put at 12.9 nM. At P300 (p300, 10 nM, Table 4), the inhibition at 0.01 µM is above 80%.
The compound `CC(=O)N1CCc2c(c(N3CCCc4cc(-c5cnn(C)c5)c(C(F)F)cc43)nn2C2CCN(CCN3CCC(C#Cc4cccc5c4n(C)c(=O)n5C4CCC(=O)NC4=O)CC3)CC2)C1` (centres unmarked) [P-251, 3-(4-((1-(2-(4-(5-acetyl-3-(7-(difluoromethyl)-6-(1-methyl-1H-pyrazol-4-yl)-3,4-dihydroquinolin-1(2H)-yl)-4,5,6,7-tetrahydro-1H-pyrazolo[4,3-c]pyridin-1-yl)piperidin-1-yl)ethyl)piperidin-4-yl)ethynyl)-3-methyl-2-oxo-2,3-dihydro-1H-benzo[d]imidazol-1-yl)piperidine-2,6-dione] registered an IC50 in experiment [1] (Table 4) of 0.1 nM. The inhibition at 0.01 µM at P300 was above 80%.
The compound `CC(=O)N1CCc2c(c(N3CCCc4cc(-c5cnn(C)c5)c(C(F)F)cc43)nn2C2CCN(C(=O)CCN3CCC(CCc4ccc5c(c4)n(C)c(=O)n5C4CCC(=O)NC4=O)CC3)CC2)C1` (centres unmarked) [P-221, 3-(5-(2-(1-(3-(4-(5-acetyl-3-(7-(difluoromethyl)-6-(1-methyl-1H-pyrazol-4-yl)-3,4-dihydroquinolin-1(2H)-yl)-4,5,6,7-tetrahydro-1H-pyrazolo[4,3-c]pyridin-1-yl)piperidin-1-yl)-3-oxopropyl)piperidin-4-yl)ethyl)-3-methyl-2-oxo-2,3-dihydro-1H-benzo[d]imidazol-1-yl)piperidine-2,6-dione] returned an IC50 in experiment [1] (Table 4) of 2.5 nM. The inhibition at 0.01 µM on P300 (p300, 10 nM, Table 4) is above 80%.
`CC(=O)N1CCc2c(c(N3CCCc4cc(-c5cnn(C)c5)c(C(F)F)cc43)nn2C2CCN(C(=O)CN3CCN(CCCc4cccc5c4n(C)c(=O)n5C4CCC(=O)NC4=O)CC3)CC2)C1` (centres unmarked) [P-237, 3-(4-(3-(4-(2-(4-(5-Acetyl-3-(7-(difluoromethyl)-6-(1-methyl-1H-pyrazol-4-yl)-3,4-dihydroquinolin-1(2H)-yl)-4,5,6,7-tetrahydro-1H-pyrazolo[4,3-c]pyridin-1-yl)piperidin-1-yl)-2-oxoethyl)piperazin-1-yl)propyl)-3-methyl-2-oxo-2,3-dihydro-1H-benzo[d]imidazol-1-yl)piperidine-2,6-dione] returned an IC50 in experiment [1] (Table 4) of 307 nM. Besides, the inhibition at 0.01 µM on P300 (p300, 10 nM, Table 4) fell in the range of 20 to 50%.
Taken in the same sequence, the figures for `CC(=O)N1CCc2c(c(N3CCCc4cc(-c5cnn(C)c5)c(C(F)F)cc43)nn2C2CCN(C(=O)CCCN3CCC(CNc4ccc5c(c4)n(C)c(=O)n5C4CCC(=O)NC4=O)CC3)CC2)C1` (centres unmarked) [P-217, 3-(5-(((1-(4-(4-(5-Acetyl-3-(7-(difluoromethyl)-6-(1-methyl-1H-pyrazol-4-yl)-3,4-dihydroquinolin-1(2H)-yl)-4,5,6,7-tetrahydro-1H-pyrazolo[4,3-c]pyridin-1-yl)piperidin-1-yl)-4-oxobutyl)piperidin-4-yl)methyl)amino)-3-methyl-2-oxo-2,3-dihydro-1H-benzo[d]imidazol-1-yl)piperidine-2,6-dione] were 21.6 nM and 50 to 80%.
Taken in the same sequence, the figures for `CC(=O)N1CCc2c(c(N3CCCc4cc(-c5cnn(C)c5)c(C(F)F)cc43)nn2C2CCN(C(=O)CN3CCC(CCc4cccc5c4n(C)c(=O)n5C4CCC(=O)NC4=O)CC3)CC2)C1` (centres unmarked) [P-228, 3-(4-(2-(1-(2-(4-(5-acetyl-3-(7-(difluoromethyl)-6-(1-methyl-1H-pyrazol-4-yl)-3,4-dihydroquinolin-1(2H)-yl)-4,5,6,7-tetrahydro-1H-pyrazolo[4,3-c]pyridin-1-yl)piperidin-1-yl)-2-oxoethyl)piperidin-4-yl)ethyl)-3-methyl-2-oxo-2,3-dihydro-1H-benzo[d]imidazol-1-yl)piperidine-2,6-dione] were 0.3 nM and above 80%.
Taken in the same sequence, the figures for `CC(=O)N1CCc2c(c(N3CCCc4cc(-c5cnn(C)c5)c(C(F)F)cc43)nn2C2CCN(C(=O)CCCCCCNc3ccc(C(=O)NC4CCC(=O)NC4=O)c4ncccc34)CC2)C1` (centres unmarked) [P-240, 5-((7-(4-(5-acetyl-3-(7-(difluoromethyl)-6-(1-methyl-1H-pyrazol-4-yl)-3,4-dihydroquinolin-1(2H)-yl)-4,5,6,7-tetrahydro-1H-pyrazolo[4,3-c]pyridin-1-yl)piperidin-1-yl)-7-oxoheptyl)amino)-N-(2,6-dioxopiperidin-3-yl)quinoline-8-carboxamide] were 1.4 nM and above 80%.

For orientation: IC50 means the concentration needed to halve the response being measured.

For the origin of these results see patent publication US20240100170A1, “CYCLIC-AMP RESPONSE ELEMENT BINDING PROTEIN (CBP) AND/OR ADENOVIRAL E1A BINDING PROTEIN OF 300 KDA (P300) DEGRADATION COMPOUNDS AND METHODS OF USE” (CULLGEN (SHANGHAI), INC., priority 2020, published 2024).
